# Experimental data as given in patent US20260091082A1, “CYCLIC PEPTIDE DERIVATIVE COMPOSITION FOR TREATING OR PREVENTING EYE DISEASE” (DKS Co. Ltd., priority 2022, published 2026).
# Values joined by “and” are separate entries in the source; they are usually repeats but may differ in a detail not shown here. Identical values can stand only once. “Also recorded” adds a separate entry of the source.
# Test system: anterior chamber aqueous humor pressure load rat model
# Test: Retinal thickness (IPL, INL, ONL) in retinal damage model induced by anterior chamber aqueous humor pressure load
# Format: in vivo, Rat; Slc: SD
# Conditions: for Inner plexiform layer (IPL) thickness compared with the control group, in words: 300 to 900 μm from the optic disk
# Experimental: • Name: Compound 9 • Source: Synthesized in the above Examples • Used amount: 0.4 mL (50 mg/mL solution) • Storage conditions: Freezing, light shielding
# Method for preparing test substance (1 mg/mL): A high concentration solution prepared at 50 mg/mL was diluted 50 times with a medium to prepare a 1 mg/mL administration solution.
# • Name: MK-801 • Distributor: SIGMA-ALDRICH • Use amount: 0.0501 g • Storage condition: refrigerated (2° C. to 8° C.)
# Method for preparing positive control substance (10 mg/mL): 0.0501 g was weighed out and made up to a total volume of 5 mL with a control substance (physiological saline).
# • Species and strains: Rat; Slc: SD • Number of animals on arrival and sex: 50 males • Age in weeks at arrival: 6 weeks old • Body weight range at arrival: 147.2 to 170.0 g • Source: Japan SLC, Inc.
# Grouping was performed two days before the first creation of the retinal damage model induced by an anterior chamber aqueous humor pressure load. Using the daily body weight as an index, stratified random allocation was performed using SAS (Ver. 9.3, SAS Institute Japan Ltd.) and EXSUS (Ver. 8.0, CAC Croit Corporation) so that an average value of the body weights of each group was approximately uniform.
# • Administration route: Eyedrop administration, intravenous administration • Administration method (eyedrop): Eyedrop administration was performed on a treated eye (right eye) of a rat using a micropipette 4 times a day (at intervals of 1.5 hours or more). • Administration method (intravenous): The amount of administration solution, calculated from the body weight on the day of administration, was administered from the tail vein using a syringe and an injection needle about 30 minutes before ischemic load. • Time of administration: Administration was performed according to the following schedule.
# 1. 10 mg/kg xylazine hydrochloride was intramuscularly administered on the model creation day (day 0). A rat was placed in an anesthesia box and subjected to general anesthesia with isoflurane (5%, oxygen:nitrous oxide=1:3). When anesthesia was effective, the rat was taken out of the anesthesia box, an inhalation anesthetic mask was worn, and anesthesia was maintained with isoflurane (1% to 5%, oxygen nitrous oxide=1:3).
# 2. The body temperature was maintained at 37° C. with a warming mat, and a mydrin P ophthalmic solution was instilled in the right eye (treated eye) of the rat to dilate the pupil, then the cravit ophthalmic solution 1.5% (Santen Pharmaceutical Co., Ltd.) was instilled.
# 3. A bottle of an IV bag containing physiological saline was previously suspended so that a water surface was 155 cm (100 mmHg or more) higher than the eye of the rat. The IV bag was connected to a pediatric infusion set (Terumo Corporation), a 27 G injection needle thereof was inserted into and fixed to the anterior chamber while slightly dripping the liquid from a needle tip. The model was created in the light phase (6:00 to 18:00) in consideration of the diurnal variation of the intraocular pressure.
# 4. After the needle was inserted into the anterior chamber, pressure (100 mmHg or more) was loaded and maintained in the anterior chamber by associating the reflux system.
# 5. After an ischemic load for 45 minutes, the injection needle and the like were removed, the inhalation anesthetic mask was removed, and the rat was sufficiently woken up under a warming mat, and then returned to the cage.
# 6. For 2 days after surgery, 10 mg/kg xylazine hydrochloride was intramuscularly administered as an analgesic for the purpose of alleviating the pain after the treatment.
# 1. Fourteen days after model creation, general anesthesia was performed with isoflurane (5%, oxygen:nitrous oxide=1:3), euthanasia was then performed by exsanguination, a suture was placed as a marker at the 12 o'clock position of the ocular conjunctiva, and eyeball enucleation was performed.
# 2. […]
# [1] = compound 9, 1 mg/mL eye drop, right eye, individual animals 301-310
# [2] = test groups 2 and 3 (test substance groups)
structure (smiles),measurement,setting,value
CC[C@@]1(C)Oc2cc(ccc2O)C[C@H](NC)C(=O)N[C@@H](C(C)C)C(=O)N[C@@H]1C(=O)N[C@@H](CC(=O)O)C(=O)O [Compound 9],"Thickness of INL (μm), Distance from Optic Disk 300 μm","compound 9 (pre), 1 mg/mL eye drop, right eye, 300 μm from optic disk, individual measurements per animal",33.065 μm (2×) and 33.507 μm and 34.677 μm and 27.561 μm and 24.567 μm and 22.703 μm and 32.389 μm and 34.110 μm and 29.740 μm and 25.207 μm and 23.667 μm and 23.845 μm and 26.312 μm and 23.484 μm and 24.843 μm and 33.881 μm and 35.521 μm and 29.211 μm and 29.882 μm and 27.608 μm and 23.876 μm and 25.810 μm and 24.277 μm and 32.198 μm and 33.996 μm and 30.756 μm and 28.424 μm and 29.579 μm and 30.220 μm
same,"Thickness of IPL (μm), Distance from Optic Disk 300 μm","compound 9 (pre), 1 mg/mL eye drop, right eye, 300 μm from optic disk, individual measurements per animal, listed as compond 9",30.656 μm and 25.003 μm and 29.032 μm and 29.077 μm and 33.909 μm (2×) and 31.903 μm and 34.939 μm and 37.800 μm and 36.389 μm and 29.133 μm and 28.638 μm and 29.937 μm and 29.144 μm (2×) and 35.013 μm and 33.871 μm and 31.072 μm and 34.110 μm and 29.907 μm and 35.630 μm and 33.931 μm and 27.028 μm and 28.472 μm and 34.310 μm and 34.680 μm and 32.998 μm and 28.183 μm and 25.310 μm and 26.057 μm
same,"Thickness of INL (μm), Distance from Optic Disk 300 μm, Mean","compound 9 (pre), 1 mg/mL eye drop, right eye, 300 μm from optic disk, mean per animal",33.750 μm and 24.944 μm and 32.080 μm and 24.240 μm and 24.880 μm and 34.156 μm and 28.900 μm and 24.654 μm and 32.317 μm and 29.408 μm
same,"Thickness of IPL (μm), Distance from Optic Disk 300 μm, Mean","compound 9 (pre), 1 mg/mL eye drop, right eye, 300 μm from optic disk, mean per animal, listed as compond 9",28.230 μm and 31.630 μm and 36.376 μm and 29.236 μm and 31.100 μm and 32.951 μm and 33.216 μm and 29.810 μm and 33.996 μm and 26.517 μm
same,"Thickness of INL (μm), Distance from Optic Disk 600 μm","compound 9 (pre), 1 mg/mL eye drop, right eye, 600 μm from optic disk, individual measurements per animal",33.065 μm and 33.351 μm and 31.150 μm and 27.855 μm and 34.827 μm and 31.493 μm and 24.207 μm and 30.656 μm and 26.506 μm and 25.323 μm and 34.640 μm and 33.153 μm and 30.688 μm and 31.462 μm and 25.000 μm and 25.819 μm and 36.789 μm and 36.469 μm and 35.907 μm and 35.051 μm and 38.781 μm and 30.223 μm and 27.431 μm and 28.512 μm and 22.710 μm and 34.691 μm and 32.298 μm and 28.240 μm and 38.410 μm and 32.790 μm
same,"Thickness of IPL (μm), Distance from Optic Disk 600 μm","compound 9 (pre), 1 mg/mL eye drop, right eye, 600 μm from optic disk, individual measurements per animal, listed as compond 9",35.272 μm and 36.967 μm and 39.787 μm and 38.516 μm and 42.129 μm and 44.421 μm and 35.566 μm and 35.907 μm and 34.333 μm and 35.134 μm and 37.963 μm and 38.006 μm and 42.772 μm and 42.744 μm and 37.116 μm and 32.671 μm and 45.118 μm and 45.778 μm and 34.473 μm and 36.322 μm and 37.125 μm and 37.847 μm and 44.472 μm and 36.393 μm and 35.013 μm and 40.678 μm and 44.362 μm and 37.009 μm and 45.280 μm and 36.469 μm
same,"Thickness of INL (μm), Distance from Optic Disk 600 μm, Mean","compound 9 (pre), 1 mg/mL eye drop, right eye, 600 μm from optic disk, mean per animal",35.066 μm and 29.743 μm and 31.250 μm and 27.792 μm and 24.846 μm and 34.161 μm and 31.483 μm and 26.353 μm and 37.223 μm and 34.583 μm
same,"Thickness of IPL (μm), Distance from Optic Disk 600 μm, Mean","compound 9 (pre), 1 mg/mL eye drop, right eye, 600 μm from optic disk, mean per animal, listed as compond 9",36.455 μm and 38.717 μm and 43.674 μm and 35.955 μm and 34.827 μm and 38.882 μm and 43.293 μm and 35.599 μm and 45.392 μm and 35.755 μm
same,"Thickness of INL (μm), Distance from Optic Disk 900 μm","compound 9 (pre), 1 mg/mL eye drop, right eye, 900 μm from optic disk, individual measurements per animal",34.804 μm and 34.579 μm and 36.245 μm and 30.909 μm and 31.452 μm and 30.862 μm and 27.037 μm and 29.926 μm (2×) and 22.638 μm and 25.416 μm and 27.482 μm and 24.116 μm and 23.512 μm and 24.261 μm and 34.939 μm and 35.346 μm and 31.197 μm and 28.785 μm and 32.162 μm and 30.368 μm and 28.858 μm and 27.378 μm and 29.877 μm and 36.469 μm and 34.623 μm and 36.346 μm and 31.402 μm and 31.035 μm and 29.653 μm
same,"Thickness of IPL (μm), Distance from Optic Disk 900 μm","compound 9 (pre), 1 mg/mL eye drop, right eye, 900 μm from optic disk, individual measurements per animal, listed as compond 9",36.789 μm and 36.607 μm and 39.836 μm and 44.120 μm and 43.136 μm and 43.354 μm and 44.421 μm and 42.075 μm and 41.663 μm and 37.132 μm and 35.896 μm and 35.907 μm and 36.540 μm and 39.019 μm and 40.323 μm and 10.804 μm and 39.318 μm and 42.252 μm and 44.289 μm and 46.476 μm and 47.334 μm and 41.468 μm and 39.312 μm and 40.445 μm and 49.477 μm and 48.242 μm and 50.923 μm and 38.230 μm and 37.912 μm and 42.098 μm
same,"Thickness of INL (μm), Distance from Optic Disk 900 μm, Mean","compound 9 (pre), 1 mg/mL eye drop, right eye, 900 μm from optic disk, mean per animal",35.209 μm and 31.074 μm and 28.963 μm and 25.179 μm and 23.963 μm and 33.827 μm and 30.438 μm and 28.704 μm and 35.813 μm and 30.697 μm
same,"Thickness of IPL (μm), Distance from Optic Disk 900 μm, Mean","compound 9 (pre), 1 mg/mL eye drop, right eye, 900 μm from optic disk, mean per animal, listed as compond 9",37.744 μm and 43.537 μm and 42.720 μm and 36.312 μm and 38.627 μm and 40.791 μm and 46.033 μm and 40.408 μm and 49.547 μm and 39.413 μm
same,"Thickness of ONL, distance from optic disk 300 μm (single measurement)",[1],29.809 μm and 32.509 μm and 28.214 μm and 43.038 μm and 41.873 μm and 42.494 μm and 36.113 μm and 33.931 μm and 32.522 μm and 36.780 μm and 37.800 μm and 37.520 μm and 42.742 μm and 39.019 μm and 43.913 μm and 40.612 μm and 41.912 μm and 42.252 μm and 45.276 μm and 46.187 μm (2×) and 47.148 μm and 61.386 μm and 56.945 μm and 55.989 μm and 51.520 μm and 53.774 μm and 52.512 μm and 40.451 μm and 43.373 μm
same,"Thickness of ONL, distance from optic disk 600 μm (single measurement)",[1],30.220 μm and 32.139 μm and 47.765 μm and 48.521 μm (2×) and 35.360 μm and 35.504 μm and 40.331 μm and 37.009 μm and 49.431 μm and 49.964 μm and 42.863 μm and 40.883 μm and 44.362 μm and 46.081 μm and 44.179 μm and 42.769 μm and 44.033 μm and 41.550 μm and 42.129 μm and 31.379 μm and 50.234 μm and 36.932 μm and 39.277 μm and 47.914 μm and 40.524 μm and 43.548 μm and 48.975 μm and 41.515 μm and 45.970 μm
same,"Thickness of ONL, distance from optic disk 900 μm (single measurement)",[1],26.908 μm and 28.742 μm and 28.226 μm and 52.295 μm and 46.680 μm and 52.512 μm and 29.438 μm and 34.522 μm and 34.086 μm and 36.727 μm and 35.966 μm and 41.192 μm and 41.663 μm and 39.411 μm and 42.337 μm and 37.593 μm and 40.812 μm and 38.516 μm and 42.098 μm and 44.443 μm and 46.165 μm and 42.932 μm and 37.619 μm and 42.252 μm and 39.713 μm and 39.071 μm and 42.321 μm and 37.664 μm and 38.550 μm and 42.169 μm
same,"Inner plexiform layer (IPL) thickness compared with the control group, in words",test group 2 (preventive: eye drop on the 2 days before model creation),statistically significant differences were observed at all measurement sites; also recorded: statistically significant effect of suppressing retinal damage by aqueous humor pressure load was observed at all measurement sites
same,"Inner plexiform layer (IPL) thickness compared with the control group, in words",test group 3 (therapeutic: eye drop for 13 days from the day after model creation),statistically significant differences were observed at all measurement sites; also recorded: statistically significant effect of suppressing retinal damage by aqueous humor pressure load was observed at all measurement sites; also recorded: almost equivalent to that of the MK-801
same,"Inner nuclear layer (INL) thickness compared with the control group, in words",[2],no obvious change was observed
same,"Outer nuclear layer (ONL) thickness compared with the control group, in words",[2],no obvious change was observed
